System: HCV 1b_Huh-Luc/Neo-ET cell line persistently expressing a bicistronic genotype 1b replicon in Huh 7 cells
Assay: HCV replicon assay (luciferase readout, 72 h)
Type: cell-based, HCV genotype 1b
Settings: Hepatitis C virus, Huh-7, 72 h, read-out: Inhibition of HCV genotype 1b
Method in brief: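 EC50 values come from a four-parameter fit of luciferase signal as % of untreated control, repeated across several determinations. The signal is from the HCV 1b_Huh-Luc/Neo-ET replicon line, dosed in triplicate one day post-plating and incubated 72 h before Bright-Glo readout.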

Compound | EC50 [nM]
COC(=O)N[C@H](C(=O)N1CCC[C@H]1c1ncc(C#Cc2ccc3cc(C#Cc4cnc([C@@H]5CCCN5C(=O)[C@@H](NC(=O)OC)C(C)C)[nH]4)ccc3c2)[nH]1)C(C)C [Compound 1114] | < 1
COC(=O)N[C@@H](C(=O)N1CCC[C@H]1c1ncc(-c2ccc(C#Cc3ccc4nc([C@@H]5CCCN5C(=O)[C@H](NC(=O)OC)c5ccccc5)[nH]c4c3)cc2)[nH]1)c1ccccc1 [Compound 800] | < 1
COC[C@@H]1CCCN1C(=O)N[C@@H](C(=O)N1CCC[C@H]1c1ncc(-c2ccc(C#Cc3ccc(-c4cnc([C@@H]5CCCN5C(=O)[C@H](NC(=O)OC)c5ccccc5)[nH]4)cc3)cc2)[nH]1)c1ccccc1 [Compound 260] | < 1
CC(C)(C)OC(=O)N[C@@H](C(=O)N1CCC[C@H]1c1cc(-c2ccc(C#Cc3ccc(-c4cnc([C@@H]5CCCN5C(=O)[C@H](NC(=O)OC(C)(C)C)c5ccccc5)[nH]4)cc3)cc2)n[nH]1)c1ccccc1 [Compound 210] | < 1
O=C(N[C@@H](C(=O)N1CCC[C@H]1c1ncc(-c2ccc(C#Cc3ccc(-c4cnc([C@@H]5CCCN5C(=O)[C@@H](c5ccccc5)N5CCCCC5)[nH]4)cc3)cc2)[nH]1)c1ccccc1)C1CC1 [Compound 208] | < 1
CC(=O)N[C@@H](C(=O)N1CCC[C@H]1c1ncc(C#Cc2ccc(-c3cnc([C@@H]4CCCN4C(=O)[C@H](NC(C)=O)c4ccccc4)[nH]3)cc2)[nH]1)c1ccccc1 [Compound 109] | < 1
COC(=O)N[C@@H](CC(C)C)C(=O)N1CCC[C@H]1c1ncc(-c2ccc(C#Cc3ccc4nc([C@@H]5CCCN5C(=O)[C@H](CC(C)C)NC(=O)OC)[nH]c4c3)cc2)[nH]1 [Compound 1067] | < 1
O=C(N[C@@H](C(=O)N1CCC[C@H]1c1ncc(C#Cc2ccc(-c3cnc([C@@H]4CCCN4C(=O)[C@H](NC(=O)N4CCOCC4)c4ccccc4)[nH]3)cc2)[nH]1)c1ccccc1)N1CCOCC1 [Compound 102] | 1 to 9.9
O=C(Cc1cccnc1)N[C@@H](C(=O)N1CCC[C@H]1c1cc(-c2ccc(C#Cc3ccc(-c4cnc([C@@H]5CCCN5C(=O)[C@H](NC(=O)Cc5cccnc5)c5ccccc5)[nH]4)cc3)cc2)n[nH]1)c1ccccc1 [Compound 222] | < 1
COC(=O)N[C@@H](C(=O)N1CCC[C@H]1c1ncc(-c2ccc(C#Cc3ccc(-c4cnc([C@@H]5CCCN5C(=O)OCc5ccccc5)[nH]4)cc3)cc2)[nH]1)c1ccccc1 [Compound 200] | < 1
CN1CCN(C(=O)N[C@@H](C(=O)N2CCC[C@H]2c2ncc(-c3ccc(C#Cc4ccc(-c5cnc([C@@H]6CCCN6C(=O)[C@H](NC(=O)N6CCN(C)CC6)c6ccccc6)[nH]5)cc4)cc3)[nH]2)c2ccccc2)CC1 [Compound 159] | < 1
COC(=O)N[C@H](C(=O)N1CCC[C@H]1c1ncc(-c2ccc(C#Cc3ccc(-c4cnc([C@@H]5CCCN5C(=O)[C@@H](c5ccccc5)N5CCN(CCO)CC5)[nH]4)cc3)cc2)[nH]1)C(C)C [Compound 958] | < 1
CC1(O)CCN(C(=O)N[C@@H](C(=O)N2CCC[C@H]2c2ncc(C#Cc3ccc(-c4ccc(-c5cnc([C@@H]6CCCN6C(=O)[C@H](NC(=O)N6CCC(C)(O)CC6)c6ccccc6)[nH]5)cc4)cc3)[nH]2)c2ccccc2)CC1 [Compound 870] | < 1
COC(=O)N[C@H](C(=O)N1CCC[C@H]1c1ncc(C#Cc2ccc(-c3cnc([C@@H]4CCCN4C(=O)[C@@H](NC(=O)OC)C(C)C)[nH]3)cc2)[nH]1)C(C)C [Compound 134] | < 1
CN(C)[C@@H](C(=O)N1CCC[C@H]1c1ncc(-c2ccc(C#Cc3ccc(-c4cnc([C@@H]5CCCN5C(=O)[C@H](NC(=O)C5CC5)c5ccccc5)[nH]4)cc3)cc2)[nH]1)c1ccccc1 [Compound 215] | < 1
C[C@H](NC(=O)[C@@H]1CCCN1C(=O)[C@H](NC(=O)C1CC1)c1ccccc1)c1ccc(C#Cc2cnc([C@@H]3CCCN3C(=O)[C@H](NC(=O)C3CC3)c3ccccc3)[nH]2)cc1 [Compound 132] | 10 to 999
COC(=O)N[C@H](C(=O)N1CCC[C@H]1c1nc2ccc3cc(C#Cc4ccc(-c5cnc([C@@H]6CCCN6C(=O)[C@H](NC(=O)OC)c6ccccc6)[nH]5)cc4F)ccc3c2[nH]1)C(C)C [Compound 1100] | < 1
O=C(N[C@@H](C(=O)N1CCC[C@H]1c1cc(-c2ccc(C#Cc3ccc(-c4cnc([C@@H]5CCCN5C(=O)[C@H](NC(=O)C5CC5)c5ccccc5)[nH]4)cc3)cc2)n[nH]1)c1ccccc1)C1CC1 [Compound 212] | < 1
CC(C)(C)OC(=O)N[C@@H](C(=O)N1CCC[C@H]1C(=O)NCCc1ccc(C#Cc2cnc([C@@H]3CCCN3C(=O)[C@H](NC(=O)OC(C)(C)C)c3ccccc3)[nH]2)cc1)c1ccccc1 [Compound 124] | < 1

Compound | EC50 [nM]
CC(C)[C@@H](NC(=O)C1CC1)C(=O)N1CCC[C@H]1C(=O)NCc1ccc(C#Cc2cnc([C@@H]3CCCN3C(=O)[C@H](NC(=O)C3CC3)C(C)C)[nH]2)cc1 [Compound 122] | 1 to 9.9
COC(=O)N[C@@H](CC(N)=O)C(=O)N1CCC[C@H]1c1ncc(-c2ccc(C#Cc3ccc4nc([C@@H]5CCCN5C(=O)[C@H](CC(N)=O)NC(=O)OC)[nH]c4c3)cc2)[nH]1 [Compound 1046] | 1 to 9.9
O=C([C@H](O)c1ccccc1)N1CCC[C@H]1c1ncc(C#Cc2ccc(-c3cnc([C@@H]4CCCN4C(=O)[C@H](O)c4ccccc4)[nH]3)cc2)[nH]1 [Compound 112] | < 1
COC(=O)N[C@H](C(=O)N1CCC[C@H]1c1nc(-c2ccc3cc(C#Cc4cnc([C@@H]5CCCN5C(=O)[C@H](NC(=O)OC)c5ccccc5)[nH]4)ccc3c2)c[nH]1)C(C)C [Compound 1077] | < 1
COC(=O)N[C@H](C(=O)N1CCC[C@H]1c1ncc(-c2ccc(C#Cc3ccc(-c4cnc([C@@H]5CCCN5C(=O)[C@@H](NC(=O)OC)C5CCOCC5)[nH]4)c(F)c3)cc2)[nH]1)C1CCOCC1 [Compound 1012] | < 1
COC(=O)N[C@H](C(=O)N1CCC[C@H]1c1ncc(-c2ccc(C#Cc3ccc(-c4cnc([C@@H]5CCCN5C(=O)[C@@H](c5ccccc5)N5CCOCC5)[nH]4)cc3)cc2)[nH]1)C(C)C [Compound 987] | < 1
COC(=O)N[C@H](C(=O)N1CCC[C@H]1c1ncc(-c2ccc(C#Cc3ccc(-c4cnc([C@@H]5CCCN5C(=O)[C@H](NC(=O)N5CC[C@@H](O)C5)c5ccccc5)[nH]4)cc3)cc2)[nH]1)C(C)C [Compound 975] | < 1
COC(=O)N[C@H](C(=O)N1CCC[C@H]1c1ncc(-c2ccc(C#Cc3ccc(-c4cnc([C@@H]5CCCN5C(=O)[C@H](NC(=O)N5CCC(O)CC5)c5ccccc5)[nH]4)cc3)cc2)[nH]1)C(C)C [Compound 991] | 1 to 9.9
COC(=O)N[C@H](C(=O)N1CCC[C@H]1c1ncc(C#Cc2ccc(-c3ccc4nc([C@@H]5CCCN5C(=O)[C@@H](NC(=O)OC)C(C)C)[nH]c4c3)nc2)[nH]1)C(C)C [Compound 1086] | < 1
COC(=O)N[C@H](C(=O)N1CCC[C@H]1c1ncc(-c2ccc(C#Cc3ccc(-c4cnc([C@H](C)NC(=O)[C@H](C(C)C)N(C)C)[nH]4)cc3)cc2)[nH]1)C(C)C [Compound 981] | 10 to 999
CC(C)[C@@H](C(=O)N1CCC[C@H]1c1ncc(-c2ccc(C#Cc3ccc4nc([C@@H]5CCCN5C(=O)[C@H](C(C)C)N5CCOC5=O)[nH]c4c3)cc2)[nH]1)N1CCOC1=O [Compound 1039] | 1 to 9.9
CN(C)[C@@H](C(=O)N1CCC[C@H]1c1ncc(-c2ccc(C#Cc3ccc(-c4cnc([C@@H]5CCCN5C(=O)[C@H](NS(C)(=O)=O)c5ccccc5)[nH]4)cc3)cc2)[nH]1)c1ccccc1 [Compound 228] | < 1
O=C(N[C@@H](C(=O)N1CCC[C@H]1c1ncc(-c2ccc(C#Cc3ccc(-c4cnc([C@@H]5CCCN5C(=O)[C@@H](c5ccccc5)N5CCCCC5)[nH]4)cc3)cc2)[nH]1)c1ccccc1)N1CCOCC1 [Compound 209] | < 1
O=C(N[C@@H](C(=O)N1CCC[C@H]1c1ncc(-c2ccc(C#Cc3ccc(-c4cnc([C@@H]5CCCN5C(=O)[C@H](NC(=O)N5CCCCC5)c5ccccc5)[nH]4)cc3)cc2)[nH]1)c1ccccc1)N1CCCCC1 [Compound 250] | < 1
COC(=O)N[C@@H](C(=O)N1CCC[C@H]1c1ncc(-c2ccc(C#Cc3ccc(-c4cnc([C@@H]5CCCN5C(=O)[C@H](NC(=O)[C@@H]5CCCO5)c5ccccc5)[nH]4)cc3)cc2)[nH]1)c1ccccc1 [Compound 195] | < 1
CC(C)(C)OC(=O)NC(C)(C)C(=O)N1CCC[C@H]1c1ncc(C#Cc2ccc(-c3cnc([C@@H]4CCCN4C(=O)C(C)(C)NC(=O)OC(C)(C)C)[nH]3)cc2)[nH]1 [Compound 106] | > 1000
CO[C@@H](C(=O)N1CCC[C@H]1c1ncc(-c2ccc(C#Cc3ccc(-c4cnc([C@@H]5CCCN5C(=O)[C@H](OC)c5ccccc5)[nH]4)cc3)cc2)[nH]1)c1ccccc1 [Compound 172] | < 1
CN1CCN(C(=O)N[C@@H](C(=O)N2CCC[C@H]2c2ncc(C#Cc3ccc(C#Cc4cnc([C@@H]5CCCN5C(=O)[C@H](NC(=O)N5CCN(C)CC5)c5ccccc5)[nH]4)cc3)[nH]2)c2ccccc2)CC1 [Compound 310] | 1 to 9.9

Same assay, conditions: Hepatitis C virus, Huh-7, read-out: Inhibition of HCV genotype 1b

Compound | EC50 [nM]
COC(=O)N[C@H](C(=O)N1CCN(C(=O)OC)C[C@H]1c1ncc(-c2ccc(C#Cc3ccc(-c4cnc([C@@H]5CCCN5C(=O)[C@@H](NC(=O)OC)C5CCOCC5)[nH]4)cc3)cc2)[nH]1)C(C)C [Compound 1205] | < 1
COC(=O)N[C@H](C(=O)N1CCC[C@H]1c1nc2c([nH]1)-c1ccc(C#Cc3ccc4nc([C@@H]5CCCN5C(=O)[C@@H](NC(=O)OC)C(C)C)[nH]c4c3)cc1CCC2)C(C)C [Compound 1279] | < 1
CC[C@H](NC(=O)OC)C(=O)N1CCC[C@H]1c1ncc(-c2ccc(C#Cc3ccc4nc([C@@H]5CCCN5C(=O)[C@@H](NC(=O)OC)[C@@H](C)OC)[nH]c4c3)cc2)[nH]1 [Compound 1247] | < 1
COC(=O)N[C@H](C(=O)N1CCN(C(C)=O)C[C@H]1c1ncc(-c2ccc(C#Cc3ccc4nc([C@@H]5CCCN5C(=O)[C@@H](NC(=O)OC)C(C)C)[nH]c4c3)cc2)[nH]1)C(C)C [Compound 1232] | < 1
